Measurements as given in publication PMC7249060, “The Antiproliferative Effects of Flavonoid MAO Inhibitors on Prostate Cancer Cells” (Molecules, 2020).
pKi: −log10 of the molar value.

Columns and labels:
hMAO-A = biological target: T1, hMAO-A (Homo sapiens, UniProt P21397); assay: Michaelis–Menten kinetics / mode of inhibition (MAO-Glow, LDS substrate); type: biochemical; settings: for Alpha parameter (mixed model of enzyme inhibition): GraphPad Prism mixed model; for mode of hMAO-A inhibition: Lineweaver–Burk, alpha analysis; for Vmax of hMAO-A with increasing inhibitor (minimum and maximum average means): inhibitor 0 to IC50 × 4
T1 construct: purchased Sigma-Aldrich Co. (St. Louis, MO, USA)
T1 sequence (P21397 1-527): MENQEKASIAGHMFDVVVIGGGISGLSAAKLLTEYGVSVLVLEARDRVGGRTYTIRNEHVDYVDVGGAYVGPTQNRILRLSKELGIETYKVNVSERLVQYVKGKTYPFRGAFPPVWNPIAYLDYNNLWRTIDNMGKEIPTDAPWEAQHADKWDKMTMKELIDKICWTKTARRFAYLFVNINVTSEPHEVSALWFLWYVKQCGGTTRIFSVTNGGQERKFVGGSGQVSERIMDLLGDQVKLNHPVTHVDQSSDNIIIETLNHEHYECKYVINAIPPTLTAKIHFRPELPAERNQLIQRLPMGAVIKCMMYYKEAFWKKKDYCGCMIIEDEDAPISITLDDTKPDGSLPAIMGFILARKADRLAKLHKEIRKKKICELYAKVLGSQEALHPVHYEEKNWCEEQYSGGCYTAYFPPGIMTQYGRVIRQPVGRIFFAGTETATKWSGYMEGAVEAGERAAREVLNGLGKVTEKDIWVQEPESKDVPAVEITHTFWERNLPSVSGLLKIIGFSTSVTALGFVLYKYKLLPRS
Procedure: The hMAO-A modes of inhibition by KKR21 and KKR11 were investigated using the Michaelis–Menten reaction kinetics and MAO-Glow™ assay. A negative control buffer and seven serially diluted LDS concentrations were prepared from a maximum final of 75 μM. Other negative control buffers and three different concentrations of each KKR were prepared to resemble IC50/4, IC50, and IC50 × 4 final concentrations (final KKR11 of 0.08, 0.31, and 1.24 μM, and final KKR21 of 0.005, 0.019, and 0.076 μM, respectively). Each KKR was mixed with the isozyme in a 2:1 ratio volume for a final concentration of 0.44 U/mL. The reactions were initiated by adding 37.5 μL of the prepared mixture to 12.5 μL LDS substrate in the 96-well plates. Opaque plates were incubated at 37 °C for 60 min. The enzymatic reaction was terminated by adding 50 μL RLDR to the plates and then was re-incubated for 30 min at RT. The generated ALU was read on the Bio-Tek Synergy HTX Multi-Reader.
The Vmax and Km were calculated from the averaged X and Y intercepts of Lineweaver–Burk (LWB) linear regressions that were analyzed from the Michaelis–Menten curve data. Vmax = 1/Y-intercept, Km = −1/X-intercept(2)
Inhibitor-constant (Ki) was calculated from Cheng–Prosuff’s equation Ki (comp) = IC50/(1+[S]/Km)(3)

LNCaP cells = assay: Viability screen assay, resazurin, 24 h; type: cell-based, human; settings: 50 μM, 90% viability as margin of cytotoxicity
Procedure: We examined the cytotoxic effects of all 20 synthesized KKRs on the three human PCa cell lines LNCaP, DU145, and PC3, after a 24 h exposure period. Non-toxic TAX was used for comparison. Briefly, cultured cells were seeded in black transparent bottom 96-well microplates at 50,000 cells/175-µL/well in experimental media (RPMI1640 for LNCaP, EMEM for DU145, and DMEM/F12K for PC3), supplied with 5% FBS and 1% P/S. Wells of media without cells were considered blanks and negative controls. The plates were incubated overnight at 37 °C in 5% CO2 to allow cell attachment. For each compound, a working solution of 8X KKR in sterile […] HEPES in HBSS pH buffer of 7.4 was prepared for a final concentration of 50 μM each. The three attached cell types were treated immediately with the related buffer being added to the control wells. A sterile fluorescence-based solution of the resazurin reagent of 0.5 mg/mL in HBSS was prepared. After 24 h, the cells were exposed to 15% v/v of the sterile resazurin reagent, and the plates were re-incubated for 4.5 h to allow redox reaction. All plates were read under 530/590-nm excitation/emission wavelengths using Bio-Tek Synergy HTX Multi-reader as a microplate fluorescence reader.

[1] = competitive model, Ki = IC50/(1 + [S]/Km)

O=c1cc(-c2ccccc2)oc2cc(Cl)c(Cl)cc12 [KKR21, 6,7-dichloro-2-phenyl-4H-chromen-4-one] was tested, and the pKi (hMAO-A; Cheng–Prosuff's equation) was at least 8.13, the “Alpha parameter (mixed model of enzyme inhibition)” value (hMAO-A) was >>1 and the “mode of hMAO-A inhibition” value (hMAO-A) was “reversible competitive inhibition”. The pKi (hMAO-A; [1]) was 8.77 and the “Vmax of hMAO-A with increasing inhibitor (minimum and maximum average means)” value (hMAO-A) was 1.38 × 10^−6–1.43 × 10^−6 U/mL/h.
For O=c1c(O)c(-c2ccccc2)oc2c(Cl)cc(Cl)cc12 [KKR7, 6,8-dichloro-3-hydroxy-2-phenyl-4H-chromen-4-one], the “cytotoxicity / cell viability” value (LNCaP cells) was “affected the LNCaP cells”.
COc1cc(O)c(C(=O)/C=C/c2ccc(Cl)c(Cl)c2)c(OC)c1 [KKR11, (E)-3-(3,4-dichlorophenyl)-1-(2-hydroxy-4,6-dimethoxyphenyl)prop-2-en-1-one] was tested, and the pKi (hMAO-A; Cheng–Prosuff's equation) was at least 8.13, the “Alpha parameter (mixed model of enzyme inhibition)” value (hMAO-A) was >>1 and the “mode of hMAO-A inhibition” value (hMAO-A) was “reversible competitive inhibition”. The pKi (hMAO-A; [1]) was 8.13 and the “Vmax of hMAO-A with increasing inhibitor (minimum and maximum average means)” value (hMAO-A) was 3 × 10^−6–4 × 10^−6 U/mL/h.
